Patent US8685666B2, “ARL-1 specific antibodies and uses thereof” (The Board of Trustees of Southern Illinois University, priority 2007, dated 2014)
“Also recorded” adds a separate entry of the source.

Tests used:
[1] = test system: AKR1B10 (ARL-1) secretion; assay: ARL-1 secretion into culture medium (sandwich ELISA and Western blot); type: cell-based, human
Experimental: Soluble proteins are secreted by either the classical or nonclassical pathway (Nickel et al., Eur J. Biochem. 270: 2109-2119, 2003). In the classical protein secretion pathway, a secretory protein is translocated by an N-terminal signal peptide into endoplasmic reticulum and Golgi complex concomitant with protein synthesis. Thus, this pathway is affected by inhibitors of protein synthesis and protein transport from ER to Golgi. […] HCT-8 cells (1.25×10^5) were cultured in 12-well plates overnight and the next day the cells were exposed to 15 μg/ml of protein synthesis inhibitor cycloheximide in fresh serum-free medium. Medium was collected at different time points for sandwich ELISA and Western blot analysis. […] Next, the effects of an ER-Golgi pathway inhibitor were examined. HCT-8 and NCI-460 cells (1.25×10^5) were cultured in 12-well plates overnight and then exposed to an ER-Golgi protein transport inhibitor brefeldin A at 0, 2, or 10 μg/ml in fresh serum-free medium for 6 hour. Medium was collected for sandwich ELISA and Western blot analysis. […] Statistic analysis was performed using Student's t test or Chi square tests, as appropriate, with INSTAT statistical analysis package (Graph Pad Software, CA), for statistical significance at p<0.05.
At 30 min before harvest, ATP (1 mM) was added and the medium was subjected to sandwich ELISA and Western blot analysis. In addition, HCT-8 cells (1.25×10^5) were seeded into 12-well plates and exposed to Ca^2+ ions (100 μM) or ionomycin at 1 or 2 μM in serum-free medium for 30 min and the medium was harvested for sandwich ELISA and Western blot analysis. […]
Proteins that are secreted via the lysosome-mediated pathway are often translocated into lysosomes by the ABC transporters (Hamon et al., Blood 90: 2911-2915, 1997). To understand the transmembrane mechanism of ARL-1, HCT-8 cells (1.25×10^5) were cultured in 12-well plates overnight and then exposed to ABC transporter inhibitor GLIB (glibenclamide) or DIDS (4,4′-diisothiocyanatostilbene-2,2′-disulfonic acid) (Sigma, Mo.) in serum-free medium for 2 hours. ATP (1 mM) was added 30 min before harvest. Medium and cells were collected for sandwich ELISA and Western blot analysis.

HCT-8 cells = assay: Mechanism of acrolein-induced cell death in HCT-8 cells with ARL-1 knockdown (flow cytometry, LDH efflux); type: cell-based, human; conditions: 25 μM
Experimental: The mechanisms of cell death induced by reactive carbonyls were investigated by flow cytometry and lactate dehydrogenase leakage assay. For flow cytometry assay, cells (with ARL-1 knockdown) were incubated with acrolein (25 μM) for 24 hours. After medium was gently removed, cells were washed with cold PBS and trypsinized. Cells in PBS and trypsin digestion were pooled, washed with PBS twice at 1200 rpm for 10 min, and then subjected to immediate propidium iodide (PI) and annexin V-FITC staining for 10 minutes in the dark as set forth in Yuan et al. (2004, Oncogene 23: 5843-5852, 2004). FACScan analysis was performed using a FACScan cytometer (Becton Dickinson, Calif.).
For lactate dehydrogenase (LDH) efflux assays, cells were plated at 5×10^4 cells/well in 12-well plates and exposed to 25 μM of acrolein for 12 hours. Medium was collected and cells were lysed for 10 min in 0.5% (v/v) Triton X-100 in 0.1 M potassium phosphate buffer (pH 7.4). Supernatants were collected by centrifugation at 10,000×g for 5 min. LDH activity in medium and cell lysates was measured using LDH assay kit (Roche, Ind.). […] Absorbance at 490 nm was read in a microplate reader (Bio-Rad, CA), with 650 nm as a reference wavelength. LDH release was calculated as: LDH release (%)=[LDH in medium/(LDH in medium+LDH in cell lysate)]×100 (Koh and Choi, 1987, J Neurosci Methods 20: 83-90).

[2] = HCT-8 cells, serum-free medium 30 min, Ca2+ ions 100 μM, ionomycin 1 or 2 μM
[3] = HCT-8 cells, serum-free medium, ATP 1 mM 30 min before harvest, Mg2+ 2 mM and/or EDTA 1 mM for 2 hours
[4] = HCT-8 cells, serum-free medium 2 hours, ATP 1 mM added 30 min before harvest

Structure (SMILES): Nc1ncnc2c1ncn2[C@@H]1O[C@H](COP(=O)(O)OP(=O)(O)OP(=O)(O)O)[C@@H](O)[C@H]1O [ATP]
- ARL-1 secretion [1, 2]: synergistic role in Ca^2+-mediated stimulation
- ARL-1 secretion [1, 3]: significantly stimulated

Structure (SMILES): [Ca+2] [Ca^2+ ions]
- ARL-1 secretion [1, 2]: significantly stimulated

Structure (SMILES): O=S(=O)(O)c1cc(N=C=S)ccc1C=Cc1ccc(N=C=S)cc1S(=O)(=O)O [DIDS, 4,4′-diisothiocyanatostilbene-2,2′-disulfonic acid]
- ARL-1 secretion [1, 4]: suppressed

Structure (SMILES): COc1ccc(Cl)cc1C(=O)NCCc1ccc(S(=O)(=O)NC(=O)NC2CCCCC2)cc1 [GLIB, glibenclamide]
- ARL-1 secretion [1, 4]: suppressed

Structure (SMILES): [Mg+2] [Mg^2+]
- ARL-1 secretion [1, 3]: blocked

Structure (SMILES): Cl.N [NH4Cl]
- ARL-1 secretion ([1]; 50 mM added simultaneously with the fresh serum-free medium): increased
- ARL-1 in freshly fed serum-free medium compared with control ([1]; 50 mM for 2 hours before switch to fresh serum-free medium): significant decrease

Structure (SMILES): C=CC=O [acrolein]
- features of induced cell death (HCT-8 cells): LDH efflux and annexin V staining, a characteristic of oncosis

Structure (SMILES): C[C@H]1CCC/C=C/[C@@H]2C[C@H](O)C[C@H]2[C@H](O)/C=C/C(=O)O1 [brefeldin A]
- ARL-1 secretion ([1]; HCT-8 and NCI-460 cells, 0, 2, or 10 μg/ml, serum-free medium, 6 hour): not affected; also recorded: did not significantly affect secretion

Structure (SMILES): C[C@@H]1C[C@@H]([C@H](O)CC2CC(=O)NC(=O)C2)C(=O)[C@@H](C)C1 [cycloheximide]
- ARL-1 secretion ([1]; HCT-8 cells, 15 μg/ml, serum-free medium, up to 8 hours): not affected; also recorded: did not significantly affect secretion

Structure (SMILES): C[C@H](CCC(=O)O)C[C@H](C)C[C@H](C)C(=O)/C=C(\O)[C@H](C)C[C@H](C)C/C=C/[C@@H](C)[C@@H](O)[C@@H](C)[C@@H](O)C[C@@H]1CC[C@@](C)([C@H]2CC[C@@](C)([C@@H](C)O)O2)O1 [ionomycin]
- ARL-1 secretion [1, 2]: significantly stimulated
